The values below come from patent US5690959A, “Pharmaceutical thermal infusion process” (priority 1993, dated 1997).

Where a name gives a salt, the structure may show the parent alone.

A short description of data set [1]: Degradation of clavulanate on thermal infusion. Type of data set: physicochemical.
The conditions of data set [2]: cited from earlier work.
For data set [3] the following is noted: cited from earlier work. This is another data set of the same source.

As to `O=C(O)[C@H]1/C(=C/CO)O[C@@H]2CC(=O)N21` [clavulanate], the figures for the degradation of clavulanate result in data set [1] (more appropriate thermal infusion temperature) and in data set [1] (thermal infusion at the more extreme temperatures) were “eliminates the degradation” and “minimal degree of degradation”, respectively. Besides, the solubility in water result in data set [2] is on record as “highly water soluble”.

Turning to `CN/C(=N/CCSCc1nc[nH]c1C)NC#N` [Cimetidine, N"-cyano-N-methyl-N'-[2-[[(5-methyl-1-H-imidazol-4-yl)methyl]thio]-ethyl]-guanidine], in data set [2], the solubility in water entry was “moderately soluble in water”.

Consider `O=C(O)[C@H]1/C(=C/CO)O[C@@H]2CC(=O)N21` [salts of clavulanic acid, Z-(3R,5R)-2-(β-hydroxyethyldiene) clavam-3-carboxylate], for which the solubility in water entry in data set [2] is “freely water soluble”. Moreover, in data set [3] (contacted by water), the hydrolytic degradation entry was “undergo spontaneous hydrolytic degradation when contacted by water”. The spontaneous exothermic reaction result in data set [3] (transport in bulk) is “undergo a spontaneous exothermic reaction with the release of large quantities of gas and fumes”.
